Experimental data reported in patent US5858687A (priority 1995, dated 1999).
Entries after “also recorded” stand apart in the source; their conditions may differ.

Legend:
[1] = tested on: human colon carcinoma HT-29 cells; type: cell-based
human melanoma cells = type: cell-based

C=C(C=O)C[C@@H]1C[C@H](O)[C@]2(C)O[C@@H]3C[C@@H]4O[C@@H]5C[C@]6(C)O[C@]7(C)CC[C@@H]8O[C@@H]9C[C@]%10(C)O[C@@H]%11C(C)=CC(=O)O[C@H]%11C[C@H]%10O[C@H]9C[C@@H](C)[C@H]8O[C@H]7C[C@H]6O[C@H]5C/C=C\[C@H]4O[C@H]3C[C@H]2O1 [brevetoxin]
response in the presence of ouabain and veratridine [1]: lack of response | response in the presence of ouabain and veratridine (human melanoma cells): does not respond; also recorded: lack of response
